From PubChem BioAssay AID2423 (Broad Institute, 2010)
Inconclusive results are not listed. The source made the active and inactive calls. How the calls were made is not given here.

The compounds below were run on C. albicans CaCi-8 + fluconazole, Alamar Blue growth, 48 h (assay: resistant C. albicans growth inhibition with fluconazole, dose response, CaCi-8 strain, Alamar Blue fluorescence (AID 2423)).
With COCc1nnc(NC(=O)c2ccc(S(=O)(=O)N3CCCc4ccccc43)cc2)o1 the EC50 was 10500 nM. In the case of COCCSc1nnc(NC(=O)CCS(=O)(=O)c2ccccc2)s1, the EC50 is reported as 1860 nM. CNC(=O)Nc1cc(C(F)(F)F)cc(C(F)(F)F)c1 showed an EC50 of 742 nM. With COc1ccc(-c2cc(C(=O)NNC(=S)NC(=O)c3c(-c4ccccc4)noc3C)[nH]n2)cc1 the EC50 was 2460 nM. C[n+]1c(-c2ccccc2)c2cc(N)ccc2c2ccc(N)cc21 was tested, and the EC50 was > 16000 nM (inactive). In the case of CCc1ccc(/C=C2/SC(=S)N(CCCC(=O)Nc3ccccc3C(=O)O)C2=O)cc1, the EC50 is reported as 982 nM. CN1CCN(C(c2ccc(C(F)(F)F)cc2)c2cc(Cl)c3cccnc3c2O)CC1 (stereo not drawn) showed an EC50 of 787 nM. For CCN(CC)c1ccc2nc3ccccc3[n+](CC)c2c1, the EC50 was 842 nM. CCN(CC)c1ccc(/C=N/Nc2nc3ccccc3[nH]2)cc1 gave an EC50 of 870 nM. Compound O=C(NNC1=C(C(=O)C(F)(F)F)CCC1)c1cccc(Cl)c1 has an EC50 of 1960 nM. CC(=O)N(Cc1ccc(F)cc1)C1=C(NCCc2ccccc2)C(=O)c2ccccc2C1=O gave an EC50 of 330 nM. In the case of COc1ccc(OC)c(-n2c(CN3CCC(C(N)=O)CC3)nc3ccccc3c2=O)c1, the EC50 is reported as > 15000 nM (inactive). Oc1c(CN2CCOCC2)cc(COCc2ccccc2)c2cccnc12 gave an EC50 of 963 nM. In the case of O=C1/C(=C\c2cccnc2)SC(=S)N1C1CCS(=O)(=O)C1 (stereo not drawn), the EC50 is reported as > 16000 nM (inactive). Cc1oc2ccc(OC(=O)N(C)C)cc2c1C(=O)OC(C)C was tested, and the EC50 was 4000 nM. For Cc1c(CCOC(=O)CC23CC4CC(CC(C)(C4)C2)C3)sc[n+]1Cc1ccc([N+](=O)[O-])cc1, the EC50 was 11900 nM. Work on Cc1cc(NC(=O)c2cccc(Oc3ccccc3)c2)n[nH]1 yielded an EC50 of 1570 nM. With O=[N+]([O-])c1cc(O)c2ncccc2c1 the EC50 was 763 nM. Compound Cc1scc(C(=O)N/N=C/c2ccc([N+](=O)[O-])o2)c1C has an EC50 of 884 nM. With Cc1ccc(C)c(/C=C/C(=O)c2ccccc(=O)c2O)c1 the EC50 was 1990 nM. For C(=C\c1ccccc1)/C=N/Nc1nc(N2CCCCC2)nc(N2CCCCC2)n1, the EC50 was > 15000 nM (inactive). For CC(C)CCNCC(=O)NC(c1ccccc1)c1ccccc1, the EC50 was > 16000 nM (inactive). Work on C(C#CCCCCCCCCC[n+]1ccccc1)#CCCCCCCCCC[n+]1ccccc1 yielded an EC50 of 3520 nM. With C=C1C(=O)O[C@@H]2C[C@@H](C)[C@@H]3C4OC4C(=O)[C@@]3(C)[C@@H](O)[C@H]12 (stereo partly drawn) the EC50 was 219 nM. Cc1nc(NS(=O)(=O)c2ccc(Br)cc2)c2c3c(sc2n1)CCC3 was tested, and the EC50 was > 16000 nM (inactive). Work on Cc1[nH]c2ccccc2c1C(=O)CCl yielded an EC50 of 175 nM. For O=C(Nc1cc(F)cc(F)c1)c1ccc(NCCCN2CCCCCC2)c([N+](=O)[O-])c1, the EC50 was > 16000 nM (inactive). For O=C(NC(Nc1nc2ccc([N+](=O)[O-])cc2s1)(C(F)(F)F)C(F)(F)F)c1ccccc1Cl, the EC50 was 1040 nM. NC(=O)c1c(NC(=O)c2ccncc2)sc2c1CCCC2 was tested, and the EC50 was 3450 nM. Work on Cc1ccccc1C(=O)O/N=C/c1c(N2CCOCC2)n(C)c2ccccc12 yielded an EC50 of 593 nM. Cc1ccc2c(c1)sc(-c1ccc(N(C)C)cc1)[n+]2C was tested, and the EC50 was 193 nM. Cc1cc(C)c2nc(NNC(=O)c3cc(-c4cccs4)nc4ccccc34)sc2c1 showed an EC50 of 804 nM. CCCCCCn1c(=O)c(-c2ccccc2)c(O)c2ccccc21 was tested, and the EC50 was 9420 nM. In the case of CN1/C(=C/C(=O)c2cccs2)Sc2ccccc21, the EC50 is reported as 841 nM. Cc1ccc2ccc3ccc(C)nc3c2n1 was tested, and the EC50 was 999 nM. COc1ccc(C(=O)NC(=S)NNC(=O)c2ccccc2C)cc1 gave an EC50 of 1990 nM. With O=C(CN1C(=O)S/C(=C\c2ccccn2)C1=O)Nc1ccccc1 the EC50 was > 15000 nM (inactive). With CC1=C(C(N)=O)C(c2ccc(C)o2)C(C(N)=O)=C(C)N1 the EC50 was > 16000 nM (inactive). CCCC(=O)NC(c1ccc(C)cc1)c1ccc2cccnc2c1O (stereo not drawn) gave an EC50 of 715 nM. With CCOC(=O)c1cc([N+](=O)[O-])c([N+](=O)[O-])cc1NC(C)=O the EC50 was 692 nM. Compound Cc1cc([N+](=O)[O-])ccc1-c1ccc(C2Nc3ccccc3C(=O)N2O)o1 (stereo not drawn) has an EC50 of 2440 nM. In the case of C=C(C)CNC(=S)N/N=C1\CCCCc2ccccc21, the EC50 is reported as > 16000 nM (inactive). Work on COc1ccc(-c2cc(C3CCN(Cc4cccc(C(F)(F)F)c4)CC3)[nH]n2)cc1 yielded an EC50 of 8130 nM. In the case of S=C(NCCN1CCOCC1)NC1CCCC1, the EC50 is reported as > 15000 nM (inactive). COC(=O)N/N=C/c1ccc(-c2cc(Cl)cc(Cl)c2)o1 was tested, and the EC50 was 929 nM. Cc1nn(CC(=O)NCCCc2ccccc2)c(C)c1[N+](=O)[O-] was tested, and the EC50 was > 15000 nM (inactive). With CCOC(=O)C1CCN(CCC(=O)Nc2ccc(F)cc2)CC1 the EC50 was > 15000 nM (inactive). Compound Cc1cc(SCC(=O)N/N=C/c2ccc(O)c(O)c2O)c(C)cc1Br has an EC50 of 884 nM. In the case of O=C(c1ccc(C(=O)N2CCN(c3ccccc3F)CC2)nc1)N1CCN(c2ccccc2F)CC1, the EC50 is reported as > 16000 nM (inactive). Work on CC1CCC(C(=O)c2c(O)c3ccccc3oc2=O)CC1 (stereo not drawn) yielded an EC50 of 2900 nM. For Oc1ccc(CN2CCN(Cc3ccccc3)CC2)c2cccnc12, the EC50 was > 16000 nM (inactive). Cc1ccc(O)c(N=Cc2cc(Cc3ccccc3)cc([N+](=O)[O-])c2O)c1 gave an EC50 of 13700 nM. For O=S(=O)(O)c1cc(O)c2c(O)c(N=Nc3cc(Cl)ccc3O)c(S(=O)(=O)O)cc2c1, the EC50 was 7520 nM. In the case of COCCN(C(=O)CSc1nnc(-c2cccc(C)c2)n1C)c1c(N)n(Cc2ccccc2)c(=O)[nH]c1=O, the EC50 is reported as > 16000 nM (inactive). Compound COc1ccc(-c2nc(-c3ccncc3)no2)cc1OC has an EC50 of 7540 nM. Work on CC(=O)NC(CC(=O)NNC(=O)c1cc2ccccc2cc1O)c1ccccc1 (stereo not drawn) yielded an EC50 of 16000 nM. CCn1c(C)nc2cc(C(=O)NNC(=S)Nc3ccc(Cl)cc3Cl)ccc21 was tested, and the EC50 was 990 nM. With Cn1c(NN)nc2sc3c(c2c1=O)CCC3 the EC50 was 10100 nM. For Cc1cccc(-n2nc(C(=O)c3ccco3)cc(-c3nc4ccccc4[nH]3)c2=N)c1, the EC50 was 6090 nM. Compound CCCCCCCNC(=O)COc1ccc2c(c1)C(=O)CC(C)(C)O2 has an EC50 of 1100 nM. In the case of OCCN1CCN(C(=S)NC2CCCC2)CC1, the EC50 is reported as > 16000 nM (inactive). For CC(=O)NC(c1ccccc1)c1cc(Cl)c2cccnc2c1O (stereo not drawn), the EC50 was 764 nM. For S=C(Nc1ccc(Cl)cc1)c1nc2ccccc2[nH]1, the EC50 was 1640 nM. For Cc1nnc(NC(=O)CSc2ncnc3c2cnn3-c2ccccc2C)s1, the EC50 was 446 nM. Work on CCn1nc(/C=C/c2ccccc2)nc2c(=O)n(C)c(=O)nc1-2 yielded an EC50 of 323 nM. In the case of COc1cccc(-c2nnc(NC(=O)c3ccc4ncsc4c3)o2)c1, the EC50 is reported as 1030 nM. Cc1cccc(NC(=S)NNC(=O)c2cc3c(s2)CCC(C)C3)c1C (stereo not drawn) gave an EC50 of 1370 nM. With NC(=S)n1[nH]c(-c2ccc([N+](=O)[O-])cc2)c(N=Nc2cccc([N+](=O)[O-])c2)c1=O the EC50 was 2830 nM. For CC(=O)c1c(C)nc(-c2cccc([N+](=O)[O-])c2)n1O, the EC50 was 3290 nM. CNCc1ccccc1Sc1ccc(O)c(O)c1 was tested, and the EC50 was 6840 nM. For Cc1ccc(O)c(-c2cc(-c3cccc(Br)c3)n[nH]2)c1, the EC50 was 6710 nM. For CC(=O)N(O)CCCCCNC(=O)CCC(=O)N(O)CCCCCNC(=O)CCC(=O)N(O)CCCCCN, the EC50 was 727 nM. In the case of O=C1c2ccccc2NC(c2cn[nH]c2-c2ccc(Cl)cc2)N1O (stereo not drawn), the EC50 is reported as > 16000 nM (inactive). In the case of Cc1ccc(-c2nnn(CC(=O)N(Cc3ccco3)C(C(=O)NC(C)(C)C)c3ccncc3)n2)o1 (stereo not drawn), the EC50 is reported as > 15000 nM (inactive). O=C(Nc1nnc(SCc2ccc(Cl)cc2)s1)c1cnccn1 was tested, and the EC50 was 1550 nM. CCCn1nc([N+](=O)[O-])c(C(C#N)c2nc3ccccc3s2)c(Cl)c1=O (stereo not drawn) showed an EC50 of 1400 nM. Work on COc1ccc(C(=O)NC(=S)NNC(=O)c2ccc(C)cc2)cc1 yielded an EC50 of 2410 nM. Compound O=C(O)c1ccc(NC(=S)NC(=O)c2ccc(-c3ccccc3)cc2)cc1 has an EC50 of 3350 nM.
